Values after ≈ are worked out from the molar mass of the structure shown. Like-named read-outs stand apart in the source and are kept apart here.
Experiments:
[1] = Solubility of various brimonidine complexes in water at the resulting pH; format: physicochemical; settings: for pH: resulting pH of the aqueous solubility sample
Protocol: In this experiment, various complexes comprising Brimonidine and counterions of one of the following acids were prepared: pamoic acid, capric acid, sebacic acid, hippuric acid, naproxen, 1-hydroxy-2-naphthoic acid, palmitic acid, and stearic acid. Variations of the procedure described in the following disclosure may be made within the skill of a person of ordinary skill in the art without departing from the scope of the present invention. Brimonidine free base in a preselected solvent was heated to about 60-70° C. The organic acid in another portion of the solvent was added into the heated mixture or was included in the original mixture before heating. The heating of the combined mixture was continued for an additional period, which was not critical. In certain embodiments, an antisolvent was added to the combined mixture, preferably at a lower temperature, to effect a precipitation of the complex of brimonidine and the counterion. It may be advantageous to remove a portion of the solvent and antisolvent to assist the precipitation. In certain other embodiments, the heated combined mixture was cooled down to a lower temperature, such as room temperature (or below) to effect the precipitation of the complex of brimonidine and the counterion. The precipitate was then filtered and dried to yield the final complex.

physchem = experiment: physchem
Protocol: Brimonidine and pamoic acid, at a molar ratio of 1:1, were mixed and dispersed in N-methylpyrrolidone (“NMP”). The solution of brimonidine and pamoic acid in NMP was heated while stirring to dissolve brimonidine (the final temperature, typically less than 70° C., was chosen so as not to lose significant amount of solvent). […] The precipitation was allow to proceed; for example, for several hours or overnight. […] Other solvents, known to people skilled in the art, may be used for a compound that provides the counterion to the α2-adrenergic agonist, as appropriate.

[2] = see US Patent Application Publication 2005/0244463 A1; cited from earlier work

For naphthoate, which pH [1] is on record?
Its pH is 5.3-5.4.

Which solubility ([1]; in water at the resulting pH (pH in column 1 of the same row)) does the source give for `Brc1c(NC2=NCCN2)ccc2nccnc12` [brimonidine free base, 5-bromo-N-(2-imidazolin-2-yl)-6-quinoxalinamine] here?
The solubility was 48 to 200 µg/mL (≈ 164 to 685 µM).

What about the pH [1] of the same compound?
The pH was 8.1-8.9.

And the solubility at 11 days (physchem; water, thermodynamic from solid)?
The solubility at 11 days was 215 µg/mL (≈ 736 µM).

What does the source list for brimonidine tartrate?
Solubility in water [2]: about 34 mg/ml; Solubility in water (physchem; water, after 11 days on a twist shaker): 41588 µg/mL

With `Brc1c(NC2=NCCN2)ccc2nccnc12.O=C(O)c1ccc2ccccc2c1O` [1-hydroxy-2-naphtoate] as the compound, how does the pH [1] read?
The pH was 6.8.

Which results are given for `Brc1c(NC2=NCCN2)ccc2nccnc12.O=C(O)c1cc2ccccc2c(Cc2c(O)c(C(=O)O)cc3ccccc23)c1O` [brimonidine pamoate]?
pH [1]: 7.2-7.5; Solubility in water (physchem): 207 µg/mL

Source: US20110183946A1, “Complexes Comprising alpha2-Adrenergic Receptor Agonists and Methods of Providing Neuroprotection or Treating or Inhibiting Progression of Glaucoma” (priority 2007, published 2011)
